The values that follow come from patent US10646489B2, “Compositions and methods for increasing energy metabolism” (NuSirt Sciences, Inc., priority 2012, dated 2020).

In assay [1] the test system is 3T3-L1 adipocytes. Put plainly: Fatty acid oxidation in 3T3-L1 adipocytes / adipocytes. Format: cell-based. The following applies: p<0.05. From the text:
(§1) Data expressed as % change from control value.*p<0.05. The output of the pathways can be measured using one or more methods, disclosed herein and/or known in the art. […] Mitochondrial biogenesis can be measured using a mitochondrial probe by using fluorescence. AMPK activity can be determined by measuring AMPK phosphorylation via an ELISA assay or by Western blot. Sirt1 activity can be determined by measuring deacetylation of a substrate, which can be detected using a fluorophore. […] Treatment with 0.5 mM leucine corresponds to a circulating level of the same molarity achieved by administering about 1,125 mg of dietary leucine to a human subject. Treatment with 0.25 mM leucine corresponds to a circulating level of the same molarity achieved by administering about 300 mg of dietary leucine to a human subject.

Assay [2] deals with C2C12 myotubes. As to the kind of experiment: Fatty acid oxidation (O2 consumption response to palmitate injection) in C2C12 myotubes / muscle cells. The following applies: for increase in myotube fat oxidation, with HMB: PDE 5 inhibitor 1 nM with HMB (5 μM); for increase in myotube fat oxidation, with leucine: PDE 5 inhibitor 1 nM with leucine (0.5 mM); for increase in myotube fat oxidation, with resveratrol: PDE 5 inhibitor 1 nM with resveratrol (200 nM). Format: cell-based. Here is the method: as §1, with “Fatty acid oxidation was measured as O2 consumption response to palmitate injection and is expressed as % change from pre-injection baseline. […] Data” for “Data”, “value. *p=0.013; **p=0.015.” for “value.*p<0.05.”

For assay [3] the following is noted: 25 mg/kg diet; ~4 mg/kg body weight; previous published studies; cited from earlier work.
A short description of assay [4]: Synergy on energy metabolism (fat oxidation, glucose utilization), cell type not stated. Format: cell-based. Here is the method: (§2) Vinopocetine, which is a PDE 1 inhibitor, was tested in combination with leucine, HMB, and resveratrol for its effects on energy metabolism.
(§3) Two PDE 3 inhibitors were studied, amrinone and cilostamide, in combination with leucine and HMB for their effects on energy metabolism.
(§4) Icariin is a naturally occurring flavonol with significant PDE 5 inhibitory activity.

Assay [5] in a line: Dose-response of the PDE inhibitor alone (concentration without effect). The format is cell-based. How it is done:
as §2, §3
Two PDE 4 inhibitors were studied, rolipram and YM796, in combination with leucine and HMB for their effects on energy metabolism.
as §4

Assay [6] has as its system C2C12 myotubes. As to the kind of experiment: Nitric oxide production in C2C12 myotubes. The format is cell-based. Particulars: HMB or resveratrol, each, p<0.0001. How it is done:
Treatment with 0.5 mM leucine corresponds to a circulating level of the same molarity achieved by administering about 1,125 mg of dietary leucine to a human subject. Treatment with 0.25 mM leucine corresponds to a circulating level of the same molarity achieved by administering about 300 mg of dietary leucine to a human subject.

Assay [7] has as its system C2C12 myotubes. Put plainly: Mitochondrial biogenesis measured as mitochondrial mass in C2C12 myotubes. The format is cell-based. Here is the method: as §1, with “The” for “Data expressed as % change from control value.*p<0.05. The”
Assay [8] concerns AMPK. Put plainly: AMPK activation in adipocytes. Format: cell-based. The following applies: rolipram 0.1 nM combinations. An excerpt:
(§5) The output of the pathways can be measured using one or more methods, disclosed herein and/or known in the art. For example, fatty acid oxidation can be determined by measuring oxygen consumption, or 3H-labeled palmitate oxidation. Mitochondrial biogenesis can be measured using a mitochondrial probe by using fluorescence. AMPK activity can be determined by measuring AMPK phosphorylation via an ELISA assay or by Western blot. Sirt1 activity can be determined by measuring deacetylation of a substrate, which can be detected using a fluorophore.
(§6) Two PDE 4 inhibitors were studied, rolipram and YM796, in combination with leucine and HMB for their effects on energy metabolism. Dose-response indicate concentrations of 0.1 nM or below of rolipram and YM796 exert no effect; accordingly, this was the concentration used in these experiments. […] However, no synergy was found for glucose utilization or AMPK activation.

Assay [9] relates to AMPK. As to the kind of experiment: AMPK activity / phosphorylation in muscle cells. The format is cell-based.
Excerpt: as §5, §6

Assay [10] deals with 3T3-L1 adipocytes. As to the kind of experiment: Glucose utilization (extracellular acidification response to glucose injection) in 3T3-L1 adipocytes / adipocytes. Format: cell-based. Here is the method:
Glucose utilization was measured as extracellular acidification response to glucose injection. *p=0.05. […] Treatment with 0.5 mM leucine corresponds to a circulating level of the same molarity achieved by administering about 1,125 mg of dietary leucine to a human subject. Treatment with 0.25 mM leucine corresponds to a circulating level of the same molarity achieved by administering about 300 mg of dietary leucine to a human subject.

Assay [11] deals with C2C12 myotubes. As to the kind of experiment: Glucose utilization (extracellular acidification response to glucose injection) in C2C12 myotubes / muscle cells. Format: cell-based. How it is done:
Glucose utilization was measured as extracellular acidification response to glucose injection. *p=0.04. […] Treatment with 0.5 mM leucine corresponds to a circulating level of the same molarity achieved by administering about 1,125 mg of dietary leucine to a human subject. Treatment with 0.25 mM leucine corresponds to a circulating level of the same molarity achieved by administering about 300 mg of dietary leucine to a human subject.

Assay [12] concerns diet-induced obese mouse. As to the kind of experiment: Post-prandial glucose, insulin and HOMAIR in the diet-induced obese mouse. Format: in vivo. The following applies: 14-day treatment. Here is the method:
The interactive effects of icariin, a flavanol with specific PDE5 inhibitory properties, on glycemia and insulin sensitivity were assessed in the diet-induced obese mouse, which can be used as a murine model of type 2 diabetes. Male C57/BL6 mice were placed on standard low-fat chow (control; 10% energy from fat) or high fat (60% energy from fat, Research Diets # D12492, Research Diets, Inc, New Brunswick, N.J.) at six weeks of age to induce insulin resistance. […], with 10 animals per group: Low fat diet (LFD) control; High fat diet (HFD) control; HFD+leucine (24 g/kg diet, a two-fold increase over control levels)1 HFD+leucine (24 g/kg diet)+icariin (25 mg/kg diet). […] Mice were fasted overnight (˜16 hours) prior to measurement of fasting blood glucose, insulin and glucose tolerance. Glucose tolerance was determined following measurement of fasting glucose via intraperitoneal administration of glucose (1.2 g/kg body weight) followed by blood glucose measurement at 15, 30, 60, 90 and 120 minutes. Post-prandial glucose was measured within one hour of cessation of eating. Insulin tolerance was measured via an insulin tolerance test (ITT). Food was removed 4-6 hours prior to ITT, and baseline blood glucose measured. The mice were then injected intraperitoneally with insulin (1.2 U/kg body weight) and blood glucose was measured 15, 30, 60, 90 and 120 minutes following insulin injection. The homeostasis model assessment of insulin resistance (HOMAIR) was used as a screening index of changes in insulin sensitivity. HOMAIR is calculated via standard formula from fasting plasma insulin and glucose as follows: HOMAIR=[Insulin (uU/mL)×glucose (mM)]/22.5. The plasma glucose and insulin concentrations were measured using the Glucose Assay Kit from Biovision (Milpitas, Calif.) and the Insulin kit from Millipore (Billerica, Mass.), respectively. CRP levels in plasma were determined by ELISA (CRP: Life Diagnostics, West Chester, Pa.).

Assay [13] in a line: Substitution of leucine by other branched chain amino acids in the synergy with a PDE5 inhibitor. An excerpt: Branched chain amino acids that can be combined with a PDE-5 inhibitor have aliphatic side chains with a branch carbon atom that is bound to two or more other atoms. The other atoms may be carbon atoms. Examples of branched chain amino acids include leucine, isoleucine, and valine. Branched chain amino acids may also include other compounds, such as 4-hydroxyisoleucine. In some embodiments, the compositions are substantially free of one or more, or all of non-branched chain amino acids. In some embodiments, the compositions are substantially free of one or more, or all of non-branched chain amino acids in free amino acid form. For example, the compositions can be substantially free of […], and/or tyrosine. The compositions can be substantially free of […], and/or tyrosine in free amino acid form. In some embodiments, the branched chain amino acid is leucine. In some embodiments, the compositions may be substantially free of isoleucine and/or valine, which may be in free form. The synergistic effects between leucine and a PDE5 inhibitor, as described herein, are not observed when leucine is substituted with isoleucine and valine. Not wishing to be bound by any particular theory, isoleucine, valine, and leucine compete with each other for transport and/or absorption, and inclusion of isoleucine and valine in a composition would reduce the efficacy of any leucine in the composition. […]

Setting [14] is: vinpocetine 0.1 nM with either leucine (0.5 mM) or HMB (5 μM).

Take `CN(C(=O)CCCOc1ccc2[nH]c(=O)ccc2c1)C1CCCCC1` [cilostamide]: the “increase in fat oxidation” value in assay [1] (adipocytes, cilostamide 10 nM combined with either leucine (0.5 mM) or HMB (5 μM)) stood at 58%; in assay [2] (muscle cells, cilostamide 10 nM combined with either leucine (0.5 mM) or HMB (5 μM), p<0.05), 92%.
Take `COc1ccc(-c2oc3c(CC=C(C)C)c(O[C@@H]4O[C@H](CO)[C@@H](O)[C@H](O)[C@H]4O)cc(O)c3c(=O)c2O[C@@H]2O[C@@H](C)[C@H](O)[C@@H](O)[C@H]2O)cc1` [icariin]: in assay [3], the “effect of the selected level” value is “no effect”. Further, the “synergy with respect to glucose utilization” value in assay [4] (icariin 1 nM) was “did not exhibit significant synergy”. Moreover, in assay [2] (C2C12 myotubes), the “increase in myotube fat oxidation, with HMB” value was found to be 75%; the “increase in myotube fat oxidation, with leucine” value was determined as 77%; the “increase in myotube fat oxidation, with resveratrol” value is on record as 157%. In addition, in assay [5], the “concentration that exerts no effect (dose-response)” value (from here on “concentration that exerts no effect”) is listed as “below 1 nM”. Besides, the “effect on nitric oxide production” value in assay [6] (icariin with leucine) is reported as “modest, significant effects”. Moreover, the “synergy with both leucine and HMB to up regulate mitochondrial biogenesis” value in [7] (icariin 1 nM, FIG. 13, p<0.001) is recorded as “significant synergy”.
As for `COc1ccc(C2CNC(=O)C2)cc1OC1CCCC1` (stereo not drawn) [rolipram], the “synergy for AMPK activation” value in [8] is given as “no synergy”. Further, the “synergistic effect with leucine, HMB or resveratrol with respect to AMPK activity” value in [9] (muscle cells, rolipram 0.1 nM) was “no synergistic effect”. Also, in assay [9] (rolipram alone, not augmented by leucine or HMB), the AMPK phosphorylation result is reported as “activated”. The “synergistic effect with leucine, HMB or resveratrol with respect to fat oxidation” value in assay [2] (muscle cells, rolipram 0.1 nM) was “no synergistic effect”. The “synergy for glucose utilization” value in [10] (adipocytes, rolipram 0.1 nM combinations) is reported as “no synergy”. Besides, in assay [11] (muscle cells, rolipram 0.1 nM), the “synergistic effect with leucine, HMB or resveratrol with respect to glucose utilization” value is on record as “no synergistic effect”.
Regarding insulin, in assay [12], the “decrease in HOMAIR vs. untreated HFD mice” value is ~40% and the “decrease in circulating (post-prandial) insulin vs. untreated HFD mice” value was ~30%.
In the case of `CC(C)[C@H](N)C(=O)O` [valine], in [13], the “synergistic effects with a PDE5 inhibitor when substituted for leucine” value is recorded as “not observed”.
With `CCOC(=O)C1=C[C@]2(CC)CCCN3CCc4c(n1c1ccccc41)[C@@H]32` [Vinpocetine], in [4] (setting [14]), the “synergy with respect to fat oxidation” value was “no synergy” and the “synergy with respect to glucose utilization” value was “no synergy”. In addition, in assay [5], the “concentration that exerts no effect” value is recorded as ≤ 0.1 nM. Besides, the “increase in glucose utilization” value in assay [10] (adipocytes, vinpocetine 0.1 nM with low-dose resveratrol (200 nM), p=0.03) was found to be 70%.
Consider `CCCc1nn(C)c2c(=O)[nH]c(-c3cc(S(=O)(=O)N4CCN(C)CC4)ccc3OCC)nc12` [sildenafil], for which, in assay [2] (C2C12 myotubes), the “increase in myotube fat oxidation, with HMB” value was found to be 203%; the “increase in myotube fat oxidation, with leucine” value was 232%; the “increase in myotube fat oxidation, with resveratrol” value is given as “no interaction”. For the same compound, in assay [2] (C2C12 myotubes, sildenafil 1 nM (change from baseline) or leucine 0.5 mM alone), the “fatty acid oxidation, agent alone” value is recorded as “about 50%”. Moreover, the “concentration that exerts no effect” value in [5] is given as “below 1 nM”. In addition, the “synergy of HMB or resveratrol with sildenafil on glucose utilization” value in assay [10] (3T3-L1 adipocytes) is listed as “neither HMB nor resveratrol exerted any significant synergy”. The “augmentation of myotube glucose utilization, with resveratrol” value in assay [11] (C2C12 myotubes, sildenafil 1 nM with resveratrol 200 nM, p=0.04) is given as 53%. Besides, the “increase in nitric oxide production” value in assay [6] (sildenafil (1 nM) with leucine) is 15-30%.
For `CC(C)(O)CC(=O)O` [HMB, beta-hydroxymethylbutyrate], in assay [1] (3T3-L1 adipocytes, leucine 0.5 mM or HMB 5 μM alone), the “fatty acid oxidation, agent alone” value amounted to 29%.
As to `CC[C@H](C)[C@H](N)C(=O)O` [isoleucine], the “synergistic effects with a PDE5 inhibitor when substituted for leucine” value in [13] was “not observed”.
In the case of `Nc1cc(-c2ccncc2)c[nH]c1=O` [amrinone], the “synergy with either leucine or HMB (energy metabolism)” value in assay [4] (amrinone 10 nM) is “no significant synergy”.
For `Oc1ccc(/C=C/c2cc(O)cc(O)c2)cc1` [resveratrol, 3,5,4′-Trihydroxy-trans-stilbene], the “effect of resveratrol on the sildenafil interaction (mitochondrial biomass)” value in assay [7] (FIG. 12) is “no significant effect”. The “interaction of resveratrol with icariin (mitochondrial biogenesis)” value in [7] (FIG. 13) is “did not exhibit a significant interaction”.
